The values that follow come from US10626077B2, “Salvianolic acid compound T, preparation method therefor, and use thereof” (TASLY PHARMACEUTICAL GROUP CO., LTD., priority 2013, dated 2020).

The test system of assay [1] is rats with myocardial infarction induced by coronary artery ligation. Nature of the assay: Blood biochemical index of rats with myocardial infarction induced by coronary artery ligation. The class given is in vivo, SD rats. The settings on record: for CK / CK-MB / LD / MDA / SOD: serum.
The test system is the same in assay [2]. Nature of the assay: Myocardial infarction rate (TTC staining) after coronary artery ligation. The settings on record: for myocardial infarction rate: compared with the model group, P<0.05. The class given is in vivo, SD rats. The protocol: Clean male SD rats were taken and placed in groups randomly according to the body-weight, including pseudo operation group (distilled water), model group (distilled water), aspirin group, (S)-salvianolic acid T low-dose group, (S)-salvianolic acid T high-dose group, and there were 10 rats in each group. Each group of rats were administrated by gastric administration once a day, continuously for 10 days. […] Recording standard II lead ECG at 5 minutes before surgery, 0 s, 1 min, 5 min, 15 min, 1 h, 4 h after the ligation, to investigate the changes of J point of ECG. Taking out the heart immediately after the end of the experiment, washing away the blood with normal saline, cutting off the atrium and the bottom of the blood vessels, weighing the mass of the ventricle, cutting the ventricle into 5 pieces on average along the atrioventricular groove and putting them into 1% (w/v) TTC solution, dyeing in the water bath at a constant temperature of 37 °C for 5 min, taking digital photos firstly after taking them out, then separating the unstained parts (that is, the infarct parts) and weighing to calculate the percentage of them in the mass of total ventricular (myocardial infarction percentage), and performing t test with ischemia model group. The formula for calculating the infarct percentage is as follows: Infarct percentage (%)=(the mass of pale areas/the mass of the ventricle)×100%

Assay [3] shares this test system. Nature of the assay: J point of ECG in rats with myocardial infarction induced by coronary artery ligation. In kind it is in vivo, SD rats. The protocol:
[…] Aspirin: 30 mg/kg body-weight. Clean male SD rats were taken and placed in groups randomly according to the body-weight, including pseudo operation group (distilled water), model group (distilled water), aspirin group, (S)-salvianolic acid T low-dose group, (S)-salvianolic acid T high-dose group, and there were 10 rats in each group. Each group of rats were administrated by gastric administration once a day, continuously for 10 days. […] Recording standard II lead ECG at 5 minutes before surgery, 0 s, 1 min, 5 min, 15 min, 1 h, 4 h after the ligation, to investigate the changes of J point of ECG.

A short description of assay [4]: DPPH free-radical scavenging reaction. The protocol:
Absorbance of the reaction solution was measured at 517 nm. In this study, vitamin C was regarded as a positive control. Free-radical scavenging rate was calculated in accordance with the following equation: Free-radical scavenging rate (%)=[1−Asample/Acontrol)/Acontrol]×100% Wherein, the Asample means the absorbance of the tested samples, and Acontrol means the absorbance of blank control.

Assay [5] is described as follows: Determination of reducing capacity (potassium ferricyanide / ferric chloride, absorbance at 700 nm). On the procedure: 0.5 ml of 200 mM phosphate buffer (pH6.8) containing different concentrations of the (S)/(R)-salvianolic acid T and 0.5 ml of 1.0% (w/v) potassium ferricyanide solution were sucked respectively and cooled on an ice bath after being heated on a water bath (50[…]) for 20 min. 0.5 ml of 10% trichloroacetic acid solution was added and centrifuged at […] for 10 min. 1.0 ml of the resulting supernatant was taken, into which 1.0 ml of distilled water and 0.2 ml of 0.1% (w/v) ferric chloride solution were added, stood still for 10 min and the absorbance was measured at 700 nm. Meanwhile, the blank experiment was carried out. Vitamin C is a strongly reducing substance, acting as positive control in this study. Reducing capacity of the sample is represented by subtracting the absorbance of the blank control from the absorbance of the tested sample. Thus, it means the higher absorbance, the stronger reducing capacity.

Assay [6] has as its system L929 cells induced by TGF-β1. The assay is described as follows: Inhibition of L929 cell proliferation induced by TGF-β1 (MTT). In kind it is cell-based. The settings on record: Mus musculus, L929, 72 h, 2 μg/L TGF-β1, 72 h, MTT method. On the procedure:
L929 cells with a cell population of 5×10^7/L adjusted by DMEM culture solution containing 10% fetal bovine serum were seeded into 96 well plate, cultured for 24 h. Supplementing the same culture medium containing 2 μg/L TGF-β1 and (S)/(R)-salvianolic acid T of different concentrations. There were 6 multiple pores in each group, final concentration of (S)/(R)-salvianolic acid T was set as 0, 1, 3, 10, 20, 40, 80, 150 μmol/L. Removing medium after being cultured for 72 h, assaying the cell activity by MTT method.

For assay [7], the system named is mice pulmonary fibrosis induced by bleomycin. Nature of the assay: Anti-pulmonary fibrosis experiment in mice induced by bleomycin. The class given is in vivo, Kunming mice. The settings on record: 3 weeks. On the procedure: Dividing the 40 mice into 4 groups: □ normal control group, given nasal dripping of normal saline, drenched with normal saline; □ model control group:given nasal dripping of bleomycin, drenched with normal saline; □(S)-salvianolic acid T group (16 mg/kg): given nasal dripping of bleomycin, drenched with (S)-salvianolic acid T solution; □(R)-salvianolic acid T group (16 mg/kg): given nasal dripping of bleomycin, drenched with (R)-salvianolic acid T solution; 10 mice in each group.
On the first day of the experiment, the mice were anesthetized with chloral hydrate, each mouse was given disposable nasal dripping of 50 μg bleomycin to establish the pulmonary fibrosis model. On the second day of the experiment, two treatment groups were drenched with (S)/(R)-salvianolic acid T, the model group and the normal group were drenched with equal volume of normal saline, once each day, 3 consecutive weeks. On the 21th day of the experiment, serum was separated from the blood collected from the orbital vein to detect TGF-β1, the mice were killed to take lungs, ground with double distilled water (the ratio of lungs and double distilled water was 1:5 (w/v)) into tissue homogenate, centrifuged to detect the MDA, superoxide dismutase (SOD), catalase (CAT), peroxidase (POD) in the tissues.

Setting [8] is: sample 0.625 μg/ml, 100 μM DPPH, 20 min, 25° C.
[9] abbreviates: high-dose group, dosage 10 mg/kg.
Setting [10] is: compared with positive control vitamin C.
Where [11] appears, read: 16 mg/kg, lung tissue homogenate.

The structures appear in SMILES notation.

As to `CC(=O)Oc1ccccc1C(=O)O` [Aspirin, reference compound], in assay [1] (aspirin group, dosage 30 mg/kg), the “Na^+—K^+-ATPase” value worked out at 0.005 ± 0.001 μmolPi/10^7 RBC/h, the CK was 1.01 ± 0.16 U/ml, the CK-MB is recorded as 841.9 ± 20.3 U/L and the LD came to 1.75 ± 0.17 mmol/L. Further, in assay [1] (aspirin group, dosage 30 mg/kg), the MDA was 6.84 ± 0.97 nmol/mL and the SOD turned out to be 221.1 ± 24.7 U/ml. Moreover, the myocardial infarction rate entry in assay [2] (aspirin group (30 mg/kg)) is reported as “significantly reduce the myocardial infarction rate”. For the same compound, in assay [3] (aspirin group, dosage 30 mg/kg, gastric once a day for 10 days, before operation), the J point is recorded as −0.012 ± 0.005 mv. Moreover, the J point in assay [3] (aspirin group, dosage 30 mg/kg, 1 min after operation) was found to be 0.172 ± 0.057 mv. In assay [3] (aspirin group, dosage 30 mg/kg, 5 min after operation), the J point was found to be 0.184 ± 0.024 mv. In assay [3] (aspirin group, dosage 30 mg/kg, 15 min after operation), this compound registered a J point of 0.166 ± 0.025 mv. Also, in assay [3] (aspirin group, dosage 30 mg/kg, 1 h after operation), the J point is listed as 0.169 ± 0.036 mv. The compound also came in with a J point in assay [3] (aspirin group, dosage 30 mg/kg, 4 h after operation) of 0.172 ± 0.021 mv.
For `O=C1O[C@H]([C@@H](O)CO)C(O)=C1O` [Vitamin C, reference compound], the Free-radical scavenging rate in assay [4] (setting [8]) stood at 8.02 ± 0.47%; in assay [4] (sample 1.25 μg/ml) it was 15.56 ± 1.81%; in assay [4] (sample 2.5 μg/ml), 21.32 ± 1.89%; in assay [4] (sample 5 μg/ml), 56.29 ± 5.93%; in assay [4] (sample 10 μg/ml) it was 79.51 ± 7.26%.
Regarding `O=C(/C=C/c1ccc(O)c(O)c1/C(=C\c1ccc(O)c(O)c1)C(=O)O)O[C@@H](Cc1ccc(O)c(O)c1)C(=O)O` [(S)-salvianolic acid T], the “Na^+—K^+-ATPase” value in assay [1] (setting [9]) stood at 0.005 ± 0.006 μmolPi/10^7 RBC/h; in assay [1] (low-dose group, dosage 5 mg/kg), 0.004 ± 0.001 μmolPi/10^7 RBC/h. Moreover, the CK in assay [1] (setting [9]) was 0.88 ± 0.22 U/ml; in assay [1] (low-dose group, dosage 5 mg/kg), 1.18 ± 0.29 U/ml. Besides, the CK-MB amounted to 846.7 ± 144.2 U/L in assay [1] (setting [9]) and 970.9 ± 225.1 U/L in assay [1] (low-dose group, dosage 5 mg/kg). For the same compound, the LD is 1.65 ± 0.24 mmol/L in assay [1] (setting [9]) and 1.67 ± 0.23 mmol/L in assay [1] (low-dose group, dosage 5 mg/kg). Also, the MDA in assay [1] (setting [9]) amounted to 6.72 ± 1.54 nmol/mL; in assay [1] (low-dose group, dosage 5 mg/kg), 7.46 ± 1.07 nmol/mL; in assay [7] (setting [11]), 324 ± 33 µg/g. Moreover, the SOD in assay [1] (setting [9]) turned out to be 241.7 ± 19.8 U/ml; in assay [1] (low-dose group, dosage 5 mg/kg), 220.3 ± 32.6 U/ml; in assay [7] (setting [11]), 57.3 ± 4.9 U/g. In addition, the “reducing capacity compared with vitamin C” value in assay [5] (setting [10]) is on record as “much stronger than that of vitamin C”. Also, the “reducing capacity (absorbance at 700 nm minus blank control)” value amounted to 0.157 ± 0.027 in assay [5] (sample 3.125 μg/ml); 0.215 ± 0.011 in assay [5] (sample 6.25 μg/ml); 0.039 ± 0.012 in assay [5] (sample 12.5 μg/ml); 0.771 ± 0.023 in assay [5] (sample 25 μg/ml); 1.573 ± 0.036 in assay [5] (sample 50 μg/ml). In addition, the “free-radical scavenging compared with vitamin C” value in assay [4] (setting [10]) is given as “much higher free-radical scavenging than that of the vitamin C”. The Free-radical scavenging rate in assay [4] (setting [8]) stood at 10.32 ± 0.81%; in assay [4] (sample 1.25 μg/ml) it was 28.77 ± 2.26%; in assay [4] (sample 2.5 μg/ml) it was 44.22 ± 1.95%; in assay [4] (sample 5 μg/ml), 86.01 ± 8.92%; in assay [4] (sample 10 μg/ml), 98.97 ± 5.41%. In assay [6], this compound displayed an IC50 of 26.1 µM. Further, in assay [7] (16 mg/kg drenched once each day, day 21), the “Serum TGF-β1” value is listed as 263 ± 35 ng/L. The CAT in assay [7] (setting [11]) was found to be 24.9 ± 2.3 U/g. Also, the POD in assay [7] (setting [11]) is 15.3 ± 2.1 U/g. The “Tissue TGF-β1” value in assay [7] (setting [11]) was determined as 541 ± 51 pg/g. In addition, in assay [2] (high-dose group compared with aspirin group, FIG. 11 heart biopsy), the “effect on preventing acute myocardial infarction induced by coronary artery ligation” value was “equal effect”. The myocardial infarction rate result in assay [2] (high-dose group) is recorded as “significantly reduce the myocardial infarction rate”. The J point in assay [3] (high-dose group, dosage 10 mg/kg, gastric once a day for 10 days, before operation) is −0.014 ± 0.005 mv; in assay [3] (high-dose group, dosage 10 mg/kg, 1 min after operation), 0.169 ± 0.033 mv; in assay [3] (high-dose group, dosage 10 mg/kg, 5 min after operation), 0.146 ± 0.031 mv; in assay [3] (high-dose group, dosage 10 mg/kg, 15 min after operation) it was 0.160 ± 0.027 mv; in assay [3] (high-dose group, dosage 10 mg/kg, 1 h after operation), 0.170 ± 0.014 mv; in assay [3] (high-dose group, dosage 10 mg/kg, 4 h after operation) it was 0.153 ± 0.028 mv. Further, the J point in assay [3] (low-dose group, dosage 5 mg/kg, gastric once a day for 10 days, before operation) is −0.011 ± 0.003 mv; in assay [3] (low-dose group, dosage 5 mg/kg, 1 min after operation) it was 0.176 ± 0.050 mv; in assay [3] (low-dose group, dosage 5 mg/kg, 5 min after operation), 0.204 ± 0.010 mv; in assay [3] (low-dose group, dosage 5 mg/kg, 15 min after operation), 0.185 ± 0.096 mv; in assay [3] (low-dose group, dosage 5 mg/kg, 1 h after operation), 0.206 ± 0.036 mv; in assay [3] (low-dose group, dosage 5 mg/kg, 4 h after operation), 0.194 ± 0.042 mv.
